Laboratory results published in US7473688B2, “Indolobenzazepine HCV NS5B inhibitors” (Bristol-Myers Squibb Company, priority 2005, dated 2009).

Assays:
[1] = target: T1, HCV NS5B (Hepatitis C virus genotype 1b, UniProt Q9WMX2); assay: HCV NS5B RdRp enzyme assay (preincubation protocol); type: biochemical; conditions: Table 1a, read-out: IC50*
T1 construct: The protein was expressed with an 18 amino acid C-terminal truncation to enhance the solubility; made in house; host or cells: E. coli BL21 (DE3), pET21a
Method in brief: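 Preincubation format: enzyme (14 nM, genotype 1b, 18-residue C-terminal truncation) meets diluted compound first; reaction started with bead-bound biotinylated dT12 primer, polyA template 0.2 nM and 0.29 μM 3H-UTP. Run 4 h, 30 °C in Hepes pH 7.5; scintillation proximity signal; IC50 fitted from seven inhibitor levels.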

[2] = test system: HCV replicon; assay: HCV replicon FRET assay; type: cell-based; conditions: Hepatitis C virus, Table 1a; FRET assay; read-out: EC50*
Method in brief: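 HCV replicon cells, with or without Renilla luciferase reporter, incubated with titrated compounds at 37 °C; Alamar blue read for cytotoxicity. NS3 protease activity read from lysates with 20 μM EDANS/DABCYL FRET peptide (340/490 nm, kinetic), or by Dual-Glo luciferase. Background from highest protease-inhibitor wells; EC50 = 50% signal reduction.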

T1 sequence (Q9WMX2 2420-2992): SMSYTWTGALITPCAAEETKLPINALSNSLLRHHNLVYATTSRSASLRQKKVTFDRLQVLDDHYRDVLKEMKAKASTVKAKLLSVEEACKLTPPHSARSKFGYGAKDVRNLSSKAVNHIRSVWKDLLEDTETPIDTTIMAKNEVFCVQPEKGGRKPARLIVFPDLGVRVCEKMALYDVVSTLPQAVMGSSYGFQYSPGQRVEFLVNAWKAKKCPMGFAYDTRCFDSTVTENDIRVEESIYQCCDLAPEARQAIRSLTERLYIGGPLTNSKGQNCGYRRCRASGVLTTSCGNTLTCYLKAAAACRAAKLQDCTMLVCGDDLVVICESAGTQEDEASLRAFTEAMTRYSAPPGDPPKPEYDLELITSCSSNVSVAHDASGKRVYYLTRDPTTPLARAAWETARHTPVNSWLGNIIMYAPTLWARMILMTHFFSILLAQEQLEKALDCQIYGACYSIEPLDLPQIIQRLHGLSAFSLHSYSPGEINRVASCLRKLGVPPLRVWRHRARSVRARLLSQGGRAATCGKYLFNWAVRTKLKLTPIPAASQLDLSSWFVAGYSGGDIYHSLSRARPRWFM

SMILES | IC50 [1] [nM] | EC50 [2] [nM]
COc1ccc2c(c1)CC(C(=O)N(C)C1CCOCC1)Cn1c-2c(C2CCCCC2)c2ccc(C(=O)NS(=O)(=O)N(C)C)cc21 (stereo not shown) | 10 to 1000 | 30 to 1000
COc1ccc2c(c1)CC(C(=O)N(C)C1CCOCC1)Cn1c-2c(C2CCCCC2)c2ccc(C(=O)O)cc21 (stereo not shown) | < 20 | 30 to 1000
COc1ccc2c(c1)CC(NC(=O)N1CCOC(CNC(C)=O)C1)Cn1c-2c(C2CCCCC2)c2ccc(C(=O)NS(=O)(=O)N(C)C)cc21 (stereo not shown) | < 20 | 30 to 1000
COc1ccc2c(c1)C=C(C(=O)N1CCOC(CO)C1)Cn1c-2c(C2CCCCC2)c2ccc(C(=O)NS(=O)(=O)N(C)C)cc21 (stereo not shown) | 10 to 1000 | 30 to 1000
COc1ccc2c(c1)C=C(C(=O)N1CC(C)CC(O)C1(C)C)Cn1c-2c(C2CCCCC2)c2ccc(C(=O)NS(=O)(=O)N(C)C)cc21 (stereo not shown) | < 20 | 30 to 1000
COc1ccc2c(c1)CC(C(=O)NCc1cc(C)nn1C)Cn1c-2c(C2CCCCC2)c2ccc(C(=O)NS(=O)(=O)N(C)C)cc21 (stereo not shown) | 10 to 1000 | 30 to 1000
COc1ccc2c(c1)CC(C(=O)NCc1cn(C)cn1)Cn1c-2c(C2CCCCC2)c2ccc(C(=O)NS(=O)(=O)N(C)C)cc21 (stereo not shown) | 10 to 1000 | 30 to 1000
COc1ccc2c(c1)CC(C(=O)N(C)CC(=O)N1CCOCC1)Cn1c-2c(C2CCCCC2)c2ccc(C(=O)NS(=O)(=O)N(C)C)cc21 (stereo not shown) | < 20 | 30 to 1000
COC(=O)CCC(=O)CNC(=O)C1=Cc2cc(OC)ccc2-c2c(C3CCCCC3)c3ccc(C(=O)OC)cc3n2C1 | 10 to 1000 | 30 to 1000
COc1ccc2c(c1)CC(NC(=O)N1C[C@@H](C)O[C@@H](C)C1)Cn1c-2c(C2CCCCC2)c2ccc(C(=O)NS(=O)(=O)N(C)C)cc21 (stereo partly shown) | 10 to 1000 | 30 to 1000
COC(=O)c1ccc2c(C3CCCCC3)c3n(c2c1)CC(C(=O)NC1CCOCC1)=Cc1cc(OC)ccc1-3 | 10 to 1000 | 30 to 1000
COc1ccc2c(c1)C=C(C(=O)N(C)CCN(C)C(C)=O)Cn1c-2c(C2CCCCC2)c2ccc(C(=O)NS(=O)(=O)N(C)C)cc21 | 10 to 1000 | 30 to 1000
COc1ccc2c(c1)C=C(C(=O)N1CC(OC)C1)Cn1c-2c(C2CCCCC2)c2ccc(C(=O)NS(=O)(=O)N(C)C)cc21 | < 20 | 30 to 1000
COc1ccc2c(c1)C=C(C(=O)N(C)CC(=O)N1CCC1)Cn1c-2c(C2CCCCC2)c2ccc(C(=O)NS(=O)(=O)N(C)C)cc21 | 10 to 1000 | 30 to 1000
CCN(C)C(=O)CN(C)C(=O)C1=Cc2cc(OC)ccc2-c2c(C3CCCCC3)c3ccc(C(=O)NS(=O)(=O)N(C)C)cc3n2C1 | 10 to 1000 | 30 to 1000
COc1ccc2c(c1)C=C(C(=O)N(C)CC(=O)N1CC(OC)C1)Cn1c-2c(C2CCCCC2)c2ccc(C(=O)NS(=O)(=O)N(C)C)cc21 | 10 to 1000 | 30 to 1000
COc1ccc2c(c1)CC(NC(=O)N1C[C@@H](C)N(C(C)=O)[C@@H](C)C1)Cn1c-2c(C2CCCCC2)c2ccc(C(=O)NS(=O)(=O)N(C)C)cc21 (stereo partly shown) | 10 to 1000 | 30 to 1000
COc1ccc2c(c1)CC(NC(=O)N(C)CC(=O)N1CCOCC1)Cn1c-2c(C2CCCCC2)c2ccc(C(=O)NS(=O)(=O)N(C)C)cc21 (stereo not shown) | 10 to 1000 | 30 to 1000
COc1ccc2c(c1)CC(NC(=O)N1CCC(N3CCOCC3)CC1)Cn1c-2c(C2CCCCC2)c2ccc(C(=O)NS(=O)(=O)N(C)C)cc21 (stereo not shown) | 10 to 1000 | 30 to 1000
COc1ccc2c(c1)CC(NC(=O)N1CCOC(CN(C)C)C1)Cn1c-2c(C2CCCCC2)c2ccc(C(=O)NS(=O)(=O)N(C)C)cc21 (stereo not shown) | 10 to 1000 | 30 to 1000
COc1ccc2c(c1)CC(NC(=O)N1CCOC(CN3CCCC3)C1)Cn1c-2c(C2CCCCC2)c2ccc(C(=O)NS(=O)(=O)N(C)C)cc21 (stereo not shown) | 10 to 1000 | 30 to 1000
COc1ccc2c(c1)CC(NC(=O)N1CCN(C(N)=O)CC1)Cn1c-2c(C2CCCCC2)c2ccc(C(=O)NS(=O)(=O)N(C)C)cc21 (stereo not shown) | 10 to 1000 | 30 to 1000
COc1ccc2c(c1)CC(NC(=O)N1CCN(CC(=O)NC(C)C)CC1)Cn1c-2c(C2CCCCC2)c2ccc(C(=O)NS(=O)(=O)N(C)C)cc21 (stereo not shown) | 10 to 1000 | 30 to 1000
CCN(C(C)=O)C1CCN(C(=O)NC2Cc3cc(OC)ccc3-c3c(C4CCCCC4)c4ccc(C(=O)NS(=O)(=O)N(C)C)cc4n3C2)C1 (stereo not shown) | 10 to 1000 | 30 to 1000
COc1ccc2c(c1)CC(NC(=O)N1CCS(=O)(=O)CC1)Cn1c-2c(C2CCCCC2)c2ccc(C(=O)NS(=O)(=O)N(C)C)cc21 (stereo not shown) | 10 to 1000 | 30 to 1000
COc1ccc2c(c1)CC(NC(=O)N1C[C@@H]3C[C@H]1CO3)Cn1c-2c(C2CCCCC2)c2ccc(C(=O)NS(=O)(=O)N(C)C)cc21 (stereo partly shown) | 10 to 1000 | 30 to 1000
